# Data reported in PubChem BioAssay AID1259407 (Chemical Carcinogenesis Research Information System (CCRIS), 2018).
# Active and inactive are the calls of the source. How the calls were made is not given here.
# System: CCRIS mutagenicity, Ames/micronucleus/aberration tests
# Experiment: CCRIS mutagenicity studies
# Conditions: Test System: AMES SALMONELLA TYPHIMURIUM
structure (smiles),measurement,setting,value
O=c1oc2cc([N+](=O)[O-])ccc2c2ccccc12,mutagenic call,"Strain/Indicator: TA98(1,8-DNP6), Metabolic Activation: NONE, Method: MICROSUSPENSION",active; positive
same,mutagenic call,"Strain/Indicator: TA98(1,8-DNP6), Metabolic Activation: NONE, Method: PREINCUBATION",active; positive
same,mutagenic call,"Strain/Indicator: TA98(1,8-DNP6), Metabolic Activation: NONE, Method: STANDARD PLATE",active; positive
same,mutagenic call,"Strain/Indicator: TA98(NR), Metabolic Activation: NONE, Method: MICROSUSPENSION",active; positive
same,mutagenic call,"Strain/Indicator: TA98(NR), Metabolic Activation: NONE, Method: PREINCUBATION",active; positive
same,mutagenic call,"Strain/Indicator: TA98(NR), Metabolic Activation: NONE, Method: STANDARD PLATE",active; positive
same,mutagenic call,"Strain/Indicator: TA98(NR), Metabolic Activation: RAT LIVER S-9 (15%), Method: PREINCUBATION",active; positive
same,mutagenic call,"Strain/Indicator: TA98(NR), Metabolic Activation: RAT LIVER S-9, 3-METHYLCHOLANTHRENE, Method: PREINCUBATION",active; positive
same,mutagenic call,"Strain/Indicator: TA98(NR), Metabolic Activation: RAT LIVER S-9, BETA-NAPHTHOFLAVONE (15%), Method: PREINCUBATION",active; positive
same,mutagenic call,"Strain/Indicator: TA98(NR), Metabolic Activation: RAT LIVER S-9, PCB (15%), Method: PREINCUBATION",active; positive
same,mutagenic call,"Strain/Indicator: TA98(NR), Metabolic Activation: RAT LIVER S-9, PHENOBARBITAL (15%), Method: PREINCUBATION",active; positive
same,mutagenic call,"Strain/Indicator: TA98(NR), Metabolic Activation: RAT, LIVER, S-9, AROCLOR 1254, Method: STANDARD PLATE",active; positive
same,mutagenic call,"Strain/Indicator: TA98, Metabolic Activation: NONE, Method: MICROSUSPENSION",active; positive
same,mutagenic call,"Strain/Indicator: TA98, Metabolic Activation: NONE, Method: PREINCUBATION",active; positive
same,mutagenic call,"Strain/Indicator: TA98, Metabolic Activation: NONE, Method: STANDARD PLATE",active; positive
same,mutagenic call,"Strain/Indicator: TA98, Metabolic Activation: RAT, LIVER, S-9, AROCLOR 1254, Method: MICROSUSPENSION",active; positive
same,mutagenic call,"Strain/Indicator: TA98, Metabolic Activation: RAT, LIVER, S-9, AROCLOR 1254, Method: STANDARD PLATE",active; positive
same,mutagenic call,"Strain/Indicator: TA100, Metabolic Activation: NONE, Method: MICROSUSPENSION",active; positive
same,mutagenic call,"Strain/Indicator: TA100, Metabolic Activation: NONE, Method: PREINCUBATION",active; positive
same,mutagenic call,"Strain/Indicator: TA100, Metabolic Activation: NONE, Method: STANDARD PLATE",active; positive
same,mutagenic call,"Strain/Indicator: TA100, Metabolic Activation: RAT LIVER S-9, 3-METHYLCHOLANTHRENE (15%), Method: PREINCUBATION",active; positive
same,mutagenic call,"Strain/Indicator: TA100, Metabolic Activation: RAT, LIVER, S-9, AROCLOR 1254, Method: MICROSUSPENSION",active; positive
same,mutagenic call,"Strain/Indicator: TA100, Metabolic Activation: RAT, LIVER, S-9, AROCLOR 1254, Method: STANDARD PLATE",active; positive
same,mutagenic call,"Strain/Indicator: TA1535, Metabolic Activation: NONE, Method: STANDARD PLATE",active; positive
same,mutagenic call,"Strain/Indicator: TA1535, Metabolic Activation: RAT, LIVER, S-9, AROCLOR 1254, Method: STANDARD PLATE",active; positive
same,mutagenic call,"Strain/Indicator: TA1537, Metabolic Activation: NONE, Method: STANDARD PLATE",active; positive
same,mutagenic call,"Strain/Indicator: TA1537, Metabolic Activation: RAT, LIVER, S-9, AROCLOR 1254, Method: STANDARD PLATE",active; positive
same,mutagenic call,"Strain/Indicator: TA1538, Metabolic Activation: NONE, Method: STANDARD PLATE",active; positive
same,mutagenic call,"Strain/Indicator: TA1538, Metabolic Activation: RAT, LIVER, S-9, AROCLOR 1254, Method: STANDARD PLATE",active; positive
same,mutagenic call,"Strain/Indicator: TA7001, Metabolic Activation: NONE, Method: PREINCUBATION",inactive; negative
same,mutagenic call,"Strain/Indicator: TA7001, Metabolic Activation: RAT LIVER S-9, 3-METHYLCHOLANTHRENE (15%), Method: PREINCUBATION",inactive; negative
same,mutagenic call,"Strain/Indicator: TA7002, Metabolic Activation: NONE, Method: PREINCUBATION",active; positive
same,mutagenic call,"Strain/Indicator: TA7002, Metabolic Activation: RAT LIVER S-9, 3-METHYLCHOLANTHRENE, Method: PREINCUBATION",active; positive
same,mutagenic call,"Strain/Indicator: TA7003, Metabolic Activation: NONE, Method: PREINCUBATION",inactive; negative
same,mutagenic call,"Strain/Indicator: TA7003, Metabolic Activation: RAT LIVER S-9, 3-METHYLCHOLANTHRENE, Method: PREINCUBATION",inactive; negative
same,mutagenic call,"Strain/Indicator: TA7004, Metabolic Activation: NONE, Method: PREINCUBATION",active; positive
same,mutagenic call,"Strain/Indicator: TA7004, Metabolic Activation: RAT LIVER S-9, 3-METHYLCHOLANTHRENE, Method: PREINCUBATION",active; positive
same,mutagenic call,"Strain/Indicator: TA7005, Metabolic Activation: NONE, Method: PREINCUBATION",active; positive
same,mutagenic call,"Strain/Indicator: TA7005, Metabolic Activation: RAT LIVER S-9, 3-METHYLCHOLANTHRENE, Method: PREINCUBATION",active; positive
same,mutagenic call,"Strain/Indicator: TA7006, Metabolic Activation: NONE, Method: PREINCUBATION",active; positive
same,mutagenic call,"Strain/Indicator: TA7006, Metabolic Activation: RAT LIVER S-9, 3-METHYLCHOLANTHRENE, Method: PREINCUBATION",active; positive
